Measurements taken from patent US9603872B2, “Methods and compositions for mitochondrial replacement therapy” (The McLeon Hospital Corporation, priority 2007, dated 2017).
Values joined by “and” are separate entries in the source; they are usually repeats but may differ in a detail not shown here. Identical values can stand only once. “Also recorded” adds a separate entry of the source. Like-named read-outs stand apart in the source and are kept apart here.

Experiments:
[1] = system: fibroblasts from BD subjects; assay: ATP levels by bioluminescence (luciferase) assay after metabolic stress; type: cell-based, human
Method: (§1) Loss of red JC1 signal relative to monomeric green JC1 indicates collapse of mitochondrial membrane […] (Smiley et al., Proc. Natl. Acad. Sci. 88:3671-3675 (1991) and Cossarizza et al., Biochem. Biophys. Res. Comm. 197:40-45 (1993)).
(§2) ATP production was measured in cultured fibroblast lines using the Roche ATP Bioluminescence assay kit CLSII following the manufacturer's protocol (Roche Diagnostics, Mannheim, Germany). Briefly, cells were plated at a concentration of 2.5×10^5 cellsper 60 mm dish were used for each experiment and experiments were conducted two days later. Cell lysis was achieved by boiling in lysis solution ([…], 4 mM EDTA, pH=7.75) followed by incubation for 2 min at 100° C. The cells then were centrifuges spun at 1000×g for 1 min. The supernatants were used for total cell ATP determination. Samples were run in triplicate on a 96-well plate MLX luminometer (Dynex Technologies, Chantilly, Va., USA). Integration was delayed for 1 sec after the addition of luciferase and luminescence was measured for 10 seconds at an emission maximum of […]. Following ATP luminescence measurements, data was normalized to protein concentration as determined by the method of Bradford (Bradford DC assay, BioRad, Temecula, Calif., USA) to yield nanograms of ATP per mg of protein. Assays were performed in triplicate.
(§3) Fibroblasts (n=6) and lymphocytes (n=6) from patients with BD and age-matched controls (Fibroblasts, n=6; lymphocytes, n=6)) were exposed to hydrocortisone to induce mitochondrial stress (REFS). Hydrocortisone (Sigma H0888, St. Louis, Mo., USA) was dissolved in 50% ethanol/50% culture medium to yield a 40 mM stock solution. Hydrocortisone was then diluted to appropriate experimental concentrations (10 nM, 1 uM, 100 uM) with above described growth media. Confluent (85-95%) fibroblasts and lymphocytes (1×10^5 ? 1×10^6) were treated for 24 hr with hydrocortisone (sub-acute stress). Cells treated with vehicle (25% ethanol) alone served as controls. Following hydrocortisone treatment, fibroblasts were examined for alterations in mitochondrial morphology, membrane potential, and ATP levels, as described above. All experiments were performed in triplicate.
(§4) We also studied an equal number of fibroblast lines from BD and age-matched controls which were exposed to 100 μM hydrogen peroxide for 24 hrs (REFS). ATP levels were assayed as described above. Light microscopic analysis of JC1 to determine changes in mitochondrial membrane potential also were performed as previously described.

[2] = system: fibroblasts from BD patients; assay: Mitochondrial morphology by MitoTracker 7510 after metabolic stress; type: cell-based, human
Method: as §3, with “The fluorescent marker, MitoTracker-[…] Fibroblasts (n=6)” for “Fibroblasts (n=6)”, “in triplicate. […] ATP levels were assayed as described above.” for “in triplicate.”

control fibroblasts [3] = assay: as above; type: cell-based, human
Method: as §3, with “The fluorescent marker, MitoTracker-[…] Fibroblasts (n=6)” for “Fibroblasts (n=6)”, “in triplicate. […] ATP levels were assayed as described above.” for “in triplicate.”

[4] = system: fibroblasts from healthy individuals; assay: Mitochondrial membrane potential by JC-1 staining after metabolic stress; type: cell-based, human; settings: 100 μM HC, 24 hr
Text: as §1
(§5) The cationic fluorescent dye, JC-1 (5,5′,6,6′-tetrachloro-1,1′,3,3′-tetraethylbenzimidazolylcarbocyanine iodide) (Strategene, La Jolla, Calif. USA), was used to detect changes in mitochondrial membrane potential according to manufacturer's protocol. JC-1 reagent produces a red fluorescence (absorption/emission maxima=585/590 nm) after accumulation and aggregation in healthy, non-apoptotic cells with intact mitochondrial membrane potential and localizes to the cytoplasm as green with JC-1 monomers fluorescence (absorption/emission maxima=510/527 nm) in cells with compromised membrane potential. Briefly, cell lines were plated at a concentration of 2.5×10^4 on coverslips and were incubated with a 1:100 dilution of pre-warmed JC1 in growth media for 15 to 20 min at 37° C., 5% CO2. Cells were then rinsed once with assay buffer and mounted in PBS and analyzed immediately on a fluorescence microscopy. The coverslips were placed on standard microscopy slides and viewed immediately using a Zeiss Axiskop 2 epifluorescence microscope.
as §3, §4

BD fibroblasts = assay: as above; type: cell-based, human
Text: as §1, §5, §3, §4

[5] = system: Control fibroblasts and lymphocytes; settings: 2 mM, 3 and 5 days, light microscopy
Method: Mood stabilizing drugs like lithium are commonly used as treatment for BD (Friedman et al., Biol. Psychiatr. 56:340-348 (2004) and Goodwin et al., JAMA 290:1467-1473 (2003)), and all but one of our subjects with BD was receiving lithium. […] Control fibroblasts and lymphocytes were treated with 2 mM lithium carbonate (LiCO3; approximately twice the average serum level of lithium in patients) for 3 and 5 days. Cells treated with a water vehicle only served as controls.
The fluorescent marker, MitoTracker-M7510 (Invitrogen, Carlsbad Calif.), was used to visualize mitochondria according to manufacturers instructions. Briefly, fibroblasts were plated at 2.5×10^4 and grown on coverslips, subsequently washed one time with pre-warmed growth media and incubated with M7510 at a final concentration of 250 nM in culture media at 37° C., 5% CO2 for 30 min. Cells were then washed once with culture media and fixed in 4% paraformaldehyde in 100 mM phosphate buffer pH 7.4 for 15 min. Following fixation, coverslips were rinsed two times in PBS and mounted in Gel Mount (Biomedia).

control fibroblasts [6] = settings: H2O2 treated
Method: as §1
as §2, with “triplicate. […]” for “triplicate.”

[7] = HC treatment, BD and control fibroblasts, data not shown

SMILES: C[C@]12CCC(=O)C=C1CC[C@@H]1[C@@H]2[C@@H](O)C[C@@]2(C)[C@H]1CC[C@]2(O)C(=O)CO [hydrocortisone]
- differences in ATP levels after treatment [1, 7]: did not reach statistical significance
- mitochondrial morphology (MitoTracker 7510) ([2]; 100 μM HC, 24 hr): perinuclear clustering like that seen in untreated cells but a greater degree of mitochondrial fragmentation
- mitochondrial morphology (MitoTracker 7510) vs untreated cells (control fibroblasts [3]; 100 μM HC, 24 hr): some loss in the reticular pattern of mitochondria; also recorded: a slight loss in the reticular pattern of the mitochondrial network and greater frequency of perinuclear clustering
- JC-1 staining (red aggregates vs green monomer) vs untreated cells [4]: loss of red mitochondrial aggregates in most cells; also recorded: loss of red mitochondrial aggregates
- JC1 staining (red aggregates vs green monomer) (BD fibroblasts; 100 μM HC, 24 hr): an even greater loss of red JC1 mitochondrial aggregates; also recorded: a loss of red JC1 mitochondrial aggregates in the majority of cells
- ratiometric changes in JC1 after treatment (BD fibroblasts; [7]): did not reach statistical significance

SMILES: O=C([O-])[O-].[Li+].[Li+] [LiCO3, lithium carbonate]
- mitochondrial shape and distribution vs vehicle treated cells [5]: no significant differences in mitochondrial shape and distribution
- mitochondrial shape and distribution vs vehicle treated cells ([5]; listed as lithium): could not be replicated

SMILES: OO [H2O2, hydrogen peroxide]
- decrease in ATP levels compared to untreated BD fibroblasts ([1]; H2O2 treated, p<0.001): 83%
- decrease in ATP levels compared to control cells exposed to H2O2 ([1]; H2O2 treated, p<0.05): 93%
- ATP levels, mean ([1]; H2O2 treated, method b169: normalized to nanograms of ATP per mg of protein): 6.2×10^−5 and 6.2×10^−4
- mitochondrial morphology (MitoTracker 7510) vs untreated cells ([2]; 100 μM H2O2, 24 hrs): almost complete loss of the mitochondrial network, mitochondrial clustering and dramatic mitochondrial fragmentation
- mitochondrial morphology (MitoTracker 7510) vs untreated cells (control fibroblasts [3]; 100 μM H2O2, 24 hrs): a dispersed mitochondrial network with loss of elongated mitochondrial profiles, increased perinuclear clustering, and increased mitochondrial fragmentation; also recorded: dispersion of the mitochondrial network with loss of elongated mitochondrial profiles
- ATP compared to untreated control cells (control fibroblasts [6]): no significant difference
- ATP levels, mean (control fibroblasts [6]; method b169: normalized to nanograms of ATP per mg of protein): 9.9×10^−4
- JC1 staining (mitochondrial membrane integrity) (BD fibroblasts; 100 μM H2O2, 24 hrs): severe loss of mitochondrial membrane integrity
